The values that follow come from patent US20250179061A1 (SIRONAX LTD., priority 2022, published 2025).

The test has as its system HT-29 cells. Nature of the test: HT-29 necroptosis cell viability assay (TNF-α/SMAC mimetic/zVAD-FMK, CellTiter-Glo). The format is cell-based. As to conditions: Homo sapiens. In short, it runs like this:
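Necroptosis was triggered by TNF-α (10 ng/ml), SMAC mimetic (6 μM) and zVAD-FMK (10 μM) in serum-free medium during 20 h compound exposure (10 concentrations, threefold steps) of HT-29 cells. IC50 from duplicate dose-responses uses CellTiter-Glo ATP luminescence as viability read-out.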

Setting [1] is: HT-29, HT-29 necroptosis cell viability assay, class symbols for IC50, read-out: Activity.
Setting [2] is: HT-29, HT-29 necroptosis cell viability, IC50 class symbols, read-out: Activity.
Setting [3] is: HT-29 cells stimulated with TNF-α (10 ng/ml), SMAC mimetic (6 μM) and zVAD-FMK (10 μM), 20 hours, CellTiter-Glo ATP luminescence, geometric mean IC50 from 10 points, read-out: Activity.
The mark [4] stands for this setting: HT-29, HT-29 cells, necroptosis induced by TNF-α/SMAC mimetic/zVAD-FMK, CellTiter-Glo, read-out: Activity (IC50 class).

Read-outs that look alike come from different tables or passages of the source.

For the compound `Cc1nn(Cc2ccc(-n3ncn(Cc4c(F)cccc4F)c3=O)cc2)c(C)c1N` [Example 193, 2-(4-((4-amino-3,5-dimethyl-1H-pyrazol-1-yl)methyl)phenyl)-4-(2,6-difluorobenzyl)-2,4-dihydro-3H-1,2,4-triazol-3-one], the IC50 under setting [1] was in the range of 1000 to 10000 nM.

`CC(C)(C)OC(=O)N1CCC2(CC1)CN(c1cc(Oc3ccc(-n4ncn(Cc5c(F)cccc5F)c4=O)cc3)ccn1)C2` [Example 480, tert-butyl2-(4-(4-(4-(2,6-difluorobenzyl)-5-oxo-4,5-dihydro-1H-1,2,4-triazol-1-yl)phenoxy)pyridin-2-yl)-2,7-diazaspiro[3.5]nonane-7-carboxylate]: the IC50 under setting [1] is less than 100 nM.

As for `N#CC12CC(Nc3cc(Oc4ccc(-n5ncn(Cc6c(F)cccc6F)c5=O)cc4Cl)c(F)cn3)(C1)C2` [Example 392, 3-((4-(2-chloro-4-(4-(2,6-difluorobenzyl)-5-oxo-4,5-dihydro-1H-1,2,4-triazol-1-yl)phenoxy)-5-fluoropyridin-2-yl)amino)bicyclo[1.1.1]pentane-1-carbonitrile], under setting [2], the IC50 is less than 100 nM.

Consider `Cc1nc(C2(F)CC(N)C2)sc1Oc1ccc(-n2ncn(Cc3c(F)cccc3F)c2=O)cc1F` (centres unmarked) [Example 109, 2-(4-((2-(3-amino-1-fluorocyclobutyl)-4-methylthiazol-5-yl)oxy)-3-fluorophenyl)-4-(2,6-difluorobenzyl)-2,4-dihydro-3H-1,2,4-triazol-3-one], for which the IC50 under setting [3] is less than 100 nM.

In the case of `Cc1nc(C2CC(C#N)C2)sc1Oc1ccc(-n2ncn(Cc3c(F)cccc3F)c2=O)cc1F` (centres unmarked) [Example 40, 3-(5-(4-(4-(2,6-difluorobenzyl)-5-oxo-4,5-dihydro-1H-1,2,4-triazol-1-yl)-2-fluorophenoxy)-4-methylthiazol-2-yl)cyclobutane-1-carbonitrile], under setting [3], the IC50 is less than 100 nM.

`Cc1sc(CCO)nc1Oc1ccc(-n2ncn(Cc3c(F)cccc3F)c2=O)cc1F` [Example 652, 4-[(2,6-difluorophenyl)methyl]-2-[3-fluoro-4-[2-(2-hydroxyethyl)-5-methyl-thiazol-4-yl]oxy-phenyl]-1,2,4-triazol-3-one]: the IC50 (HT-29, read-out: Activity (IC50 class)) lay in the range of 100 to 1000 nM.

In the case of `CCOC1CN(c2ncc(F)c(Oc3ccc(-n4ncn(Cc5c(F)cccc5F)c4=O)cc3)c2F)C1` [Example 674, 4-(2,6-difluorobenzyl)-2-(4-((2-(3-ethoxyazetidin-1-yl)-3,5-difluoropyridin-4-yl)oxy)phenyl)-2,4-dihydro-3H-1,2,4-triazol-3-one], the IC50 under setting [4] was less than 100 nM.

Regarding `Cc1nc(C(C)(C)O)sc1Oc1ccc(-n2ncn(Cc3cc(Cl)ccn3)c2=O)cc1F` [Example 471, 4-((4-chloropyridin-2-yl)methyl)-2-(3-fluoro-4-((2-(2-hydroxypropan-2-yl)-4-methylthiazol-5-yl)oxy)phenyl)-2,4-dihydro-3H-1,2,4-triazol-3-one], under setting [2], the IC50 lay within 1000 to 10000 nM.

Consider `Cc1nc(N2CC(N)(C(F)F)C2)sc1Oc1ccc(-n2ncn(Cc3c(F)cccc3F)c2=O)cc1F` [Example 450, 2-(4-((2-(3-amino-3-(difluoromethyl)azetidin-1-yl)-4-methylthiazol-5-yl)oxy)-3-fluorophenyl)-4-(2,6-difluorobenzyl)-2,4-dihydro-3H-1,2,4-triazol-3-one], for which the IC50 under setting [2] was less than 100 nM.

`Cc1nc(C(N)=O)sc1Oc1ccc(-n2ncn(Cc3c(F)cccc3F)c2=O)cc1Cl` [Example 88, 5-(2-chloro-4-(4-(2,6-difluorobenzyl)-5-oxo-4,5-dihydro-1H-1,2,4-triazol-1-yl)phenoxy)-4-methylthiazole-2-carboxamide]: under setting [3], the IC50 is less than 100 nM.

In the case of `CN(c1cc(Oc2ccc(-n3ncn(Cc4c(F)cccc4F)c3=O)cc2)ccn1)C1CCC1` [Example 352, 2-(4-((2-(cyclobutyl(methyl)amino)pyridin-4-yl)oxy)phenyl)-4-(2,6-difluorobenzyl)-2,4-dihydro-3H-1,2,4-triazol-3-one], the IC50 under setting [2] fell in the range of 100 to 1000 nM.

In the case of `Nc1ccccc1Oc1ccc(-n2nc(Cl)n(Cc3ccccc3)c2=O)cc1` [Example 679, 2-(4-(2-aminophenoxy)phenyl)-4-benzyl-5-chloro-2,4-dihydro-3H-1,2,4-tirazol-3-one], the IC50 under setting [4] was less than 100 nM.

As to `Cc1nc(C(=O)N2CC(O)C2)sc1Oc1ccc(-n2ncn(Cc3ccccc3F)c2=O)cc1F` [Example 593, 2-(3-fluoro-4-((2-(3-hydroxyazetidine-1-carbonyl)-4-methylthiazol-5-yl)oxy)phenyl)-4-(2-fluorobenzyl)-2,4-dihydro-3H-1,2,4-triazol-3-one], under setting [1], the IC50 was less than 100 nM.

As for `Cc1nc(C#N)sc1Oc1ccc(-n2ncn(Cc3c(F)cccc3F)c2=O)cc1Cl` [Example 86, 5-(2-chloro-4-(4-(2,6-difluorobenzyl)-5-oxo-4,5-dihydro-1H-1,2,4-triazol-1-yl)phenoxy)-4-methylthiazole-2-carbonitrile], the IC50 under setting [3] was less than 100 nM.

Consider `O=c1n(Cc2c(F)cccc2F)cnn1-c1ccc(Oc2ccnc(N3CCC34COC4)c2)cc1` [Example 245, 2-(4-((2-(6-oxa-1-azaspiro[3.3]heptan-1-yl)pyridin-4-yl)oxy)phenyl)-4-(2,6-difluorobenzyl)-2,4-dihydro-3H-1,2,4-triazol-3-one], for which the IC50 under setting [2] lay in the range of 100 to 1000 nM.

Turning to `CCOC(=O)c1cc(C)n(Cc2ccc(-n3ncn(Cc4c(F)cccc4F)c3=O)cc2F)n1` [Example 198, ethyl 1-(4-(4-(2,6-difluorobenzyl)-5-oxo-4,5-dihydro-1H-1,2,4-triazol-1-yl)-2-fluorobenzyl)-5-methyl-1H-pyrazole-3-carboxylate], under setting [1], the IC50 was in the range of 100 to 1000 nM.

`Cc1nc(N2CC(C)(C#N)C2)cn1Cc1ccc(-n2ncn(Cc3c(F)cccc3F)c2=O)cc1` [Example 664, 1-(1-(4-(4-(2,6-difluorobenzyl)-5-oxo-4,5-dihydro-1H-1,2,4-triazol-1-yl)benzyl)-2-methyl-1H-imidazol-4-yl)-3-methylazetidine-3-carbonitrile]: the IC50 under setting [4] is 1000 to 10000 nM.

Consider `COC(=O)c1nc(C)c(Oc2ccc(-n3ncn(Cc4ncccc4F)c3=O)cc2F)s1` [Example 32], for which the IC50 under setting [3] lay in the range of 100 to 1000 nM.

As for `N#CC12CC(Nc3cc(Oc4ccc(-n5ncn(Cc6c(F)cccc6F)c5=O)cc4F)c(Cl)cn3)(C1)C2` [Example 270, 3-((5-chloro-4-(4-(4-(2,6-difluorobenzyl)-5-oxo-4,5-dihydro-1H-1,2,4-triazol-1-yl)-2-fluorophenoxy)pyridin-2-yl)amino)bicyclo[1.1.1]pentane-1-carbonitrile], the IC50 under setting [2] is less than 100 nM.

For the compound `Cc1nc(C(=O)NCCN2CCOCC2)sc1Oc1ccc(-n2ncn(Cc3c(F)cccc3F)c2=O)cc1F` [Example 24, 5-(4-(4-(2,6-diflurobenzyl)-5-oxo-4,5-dihydro-1H-1,2,4-triazol-1-yl)-2-fluorophenoxy)-4-methyl-N-(2-morpholinoethyl)thiazole-2-carboxamide], the IC50 under setting [3] was less than 100 nM.

`Cc1nc(N2CC(C)(N)C2)sc1C(C)c1ccc(-n2ncn(Cc3c(F)cccc3F)c2=O)cc1` (centres unmarked) [Example 513, 2-[4-[1-[2-(3-amino-3-methyl-azetidin-1-yl)-4-methyl-thiazol-5-yl]ethyl]phenyl]-4-[(2,6-difluorophenyl)methyl]-1,2,4-triazol-3-one; 2,2,2-trifluoroacetic acid]: the IC50 under setting [1] lay in the range of 100 to 1000 nM.

On to `Cc1nn(-c2ccc(S(=O)(=O)N3CCN(CC4CCOC4)CC3)cc2)c(=O)n1Cc1ccccc1` (centres unmarked) [Example 625, 4-benzyl-5-methyl-2-(4-((4-((tetrahydrofuran-3-yl)methyl)piperazin-1-yl)sulfonyl)phenyl)-2,4-dihydro-3H-1,2,4-triazol-3-one], for which, under setting [1], the IC50 fell in the range of 100 to 1000 nM.

Consider `O=c1c(Br)cccn1Cc1ccc(-n2ncn(Cc3c(F)cccc3F)c2=O)cc1` [Example 211, 3-bromo-1-(4-(4-(2,6-difluorobenzyl)-5-oxo-4,5-dihydro-1H-1,2,4-triazol-1-yl)benzyl)pyridin-2(1H)-one], for which the IC50 under setting [1] was 100 to 1000 nM.

For the compound `CCOC1CN(c2nccc(Oc3ccc(-n4ncn(Cc5c(F)cccc5F)c4=O)cc3)c2Cl)C1` [Example 261, 2-(4-((3-chloro-2-(3-ethoxyazetidin-1-yl)pyridin-4-yl)oxy)phenyl)-4-(2,6-difluorobenzyl)-2,4-dihydro-3H-1,2,4-triazol-3-one], the IC50 under setting [2] lay within 100 to 1000 nM.

Regarding `Cc1nc(C)n(Cc2ccc(-n3ncn(Cc4c(F)cccc4F)c3=O)cc2F)c1C#N` [Example 123, 1-(4-(4-(2,6-difluorobenzyl)-5-oxo-4,5-dihydro-1H-1,2,4-triazol-1-yl)-2-fluorobenzyl)-2,4-dimethyl-1H-imidazole-5-carbonitrile], the IC50 under setting [1] lay within 100 to 1000 nM.

In the case of `CCOC1CN(c2nccc(Oc3ccc(-n4ncn(Cc5c(F)cccc5F)c4=O)cc3)c2F)C1` [Example 355, 4-(2,6-difluorobenzyl)-2-(4-((2-(3-ethoxyazetidin-1-yl)-3-fluoropyridin-4-yl)oxy)phenyl)-2,4-dihydro-3H-1,2,4-triazol-3-one], the IC50 under setting [2] is less than 100 nM.

Regarding `Cc1nc(C(N)=O)n(C)c1Oc1ccc(-n2nc3n(c2=O)[C@H](c2ccccc2)CC3)cc1F` (single isomer, unassigned) [Example 693], the IC50 under setting [3] is less than 100 nM.

Turning to `CC(=O)Nc1cc(Oc2ccc(-n3ncn(Cc4c(F)cccc4F)c3=O)cc2)ccn1` [Example 521, N-[4-[4-[4-[(2,6-difluorophenyl)methyl]-5-oxo-1,2,4-triazol-1-yl]phenoxy]-2-pyridyl]acetamide], under setting [1], the IC50 fell in the range of 100 to 1000 nM.

Turning to `CC1(C)COC(Nc2cc(Oc3ccc(-n4ncn(Cc5c(F)cccc5F)c4=O)cc3F)c(F)cn2)=N1` [Example 474, 4-(2,6-difluorobenzyl)-2-(4-((2-((4,4-dimethyl-4,5-dihydrooxazol-2-yl)amino)-5-fluoropyridin-4-yl)oxy)-3-fluorophenyl)-2,4-dihydro-3H-1,2,4-triazol-3-one], under setting [2], the IC50 lay in the range of 100 to 1000 nM.
